This is an account of results in US6458840B2, “Use of valproic acid analog for the treatment and prevention of migraine and affective illness” (American Biogenetic Sciences, Inc., priority 1998, dated 2002).

Molecules are shown by their SMILES.

Data set [1] in a line: Rotarod test (neurological deficit) in kindled rats. In kind it is in vivo, rat. The procedure:
(§1) Tests included open field observations, rotarod test and body temperature. Tests were always performed in the same manner in control and drug experiments at two different times, just before application of drug or vehicle and 13 minutes after application.
The rotarod test was carried out with a rod of 6 cm diameter and rotation speed of 8 r.p.m. Neurological deficit was indicated by inability of the animals to maintain their equilibrium for at least 1 min on the rotating rod. Rats had to be trained prior to drug experiments to maintain their balance on the rod. After drug or vehicle treatment, rats which were not able to maintain their equilibrium on the rod for 1 minute were put again on the rod twice.

A further data set is described as follows: Rectal body temperature. The conditions noted are these: for BODY TEMP., day of exper., 13′ post appl.: mean (X). The data set is classed as in vivo, rat. The procedure:
Female Wistar rats (Harlan-Winkelmann, Borchen, Germany) were obtained at an age of 11-12 weeks (body weight 180-200 g). Female rats were employed because they are known to eliminate drugs less rapidly than do males, which was thought to be an advantage for drug potency studies. Rats were kept separately in plastic cages at controlled temperature (23° C.) and humidity (about 50 %) with a 12-h light cycle beginning at 7 a.m. They received standard diet (Altromin; Lage, F.R.G.), tap water and libitum. All drug injections were done in the afternoon at an ambient temperature of 23-25° C. The regular protocol started by taking the rats out of their individual cage, weighing them and joining them together on a table with six open plastic cages for better behavioral observations. Therefore animals were able to move from one cage to another and either to have social contact or to avoid it. After a short adaptation time of approximately 15 minutes, rectal body temperatures were recorded followed by drug or vehicle application.
as §1
In addition to these quantitative estimations of neurological deficit, behavioral alterations observed after administration of 2-propyl-4-hexynoic acid and valproate noted in the cage and by placing the animals in an open field of 90-100 cm diameter. Muscle tone was estimated by palpation of the abdomen. The extent of deficits in behavior after administration of the compounds was determined by a rating system (Loscher et al. 1987). In short, animals were taken out of the cage, placed in an open field, observed for about 1 minute and rated separately for ataxia, abducted hindlimbs, reduced righting, flat body posture, circling, Straub tail, piloerection, hypolocomotion and hyperlocomotion (abdominal muscle tone was evaluated by palpation at the end of the period of observation). All other parameters except ataxia were scored from 0 to 3: 0-absent; 1-equivocal; 2-present; 3- intense. For ataxia (06): 1 -slight ataxia in hind-legs (tottering of the hind quarters); 2-more pronounced ataxia with dragging of hind legs; 3-further increase of ataxia and more pronounced dragging of hind legs; 4-marked ataxia, animals lose balance during forward locomotion; 5- very marked ataxia with frequent loss of balance during forward locomotion; 6-permanent loss of righting reflexes, but animal still attempts to move forward. Rectal body temperature was measured by an electronic thermometer. Body weight of the animals was recorded once daily before drug injection. Significance of differences in behavior between pre-drug and post-drug data determined in the same group of animals was calculated by the Wilcoxon signed rank test for paired replicates and for body temperature by Student's paired t-test (SigmaStat for Windows, version 1.0). Differences in body temperature were always compared only within the experimental day with the pre-drug time as control to one post-drug time.

[2] abbreviates: 50 mg/kg i.p., 13′ after application.
The mark [3] stands for this setting: 75 mg/kg i.p., 13′ after application.
Where [4] appears, read: doses 50, 75, 100, 200 mg/kg i.p.

In the case of `CC#CCC(CCC)C(=O)O` (centres unmarked) [2-propyl-4-hexynoic acid, 2-n-propyl-4-hexynoic acid], the “rotarod-test, day of exper.” value in data set [1] (setting [2]) turned out to be 0%; in data set [1] (setting [3]), 0%; in data set [1] (200 mg/kg, 13′, all 8 animals +), 0%. Moreover, in data set [1] (setting [4]), the “rotarod-test, in words” value is reported as “performed successfully by all individuals”. Moreover, the figures for the “BODY TEMP., day of exper., 13′ post appl.” value in “Rectal body temperature” (50 mg/kg i.p.) and in the data set “Rectal body temperature” (75 mg/kg i.p.) were 38.48 °C and 38.49 °C, respectively. Further, the “BODY TEMP. (° C.) day of exper. 13′ post appl.” value in “Rectal body temperature” (200 mg/kg, 13′ post appl., mean of 8 rats, ante appl. 38.68) turned out to be 37.94 °C. Moreover, in the data set “Rectal body temperature” (setting [4]), the “body-temperatures, in words” value is “maintained within the physiological range”.
For `CCCC(CCC)C(=O)O` [Valproate, valproic acid], the “rotarod-test, day of exper.” value in data set [1] (setting [2]) is given as 0%; in data set [1] (setting [3]), 0%; in data set [1] (100 mg/kg i.p., 13′ after application) it was 0%; in data set [1] (200 mg/kg i.p., 13′ after application) it was 0%. The “rotarod test, in words” value in data set [1] (100 mg/kg i.p.) and in data set [1] (200 mg/kg i.p.) was “performed without failure” each time. For the same compound, the “BODY TEMP., day of exper., 13′ post appl.” value in “Rectal body temperature” (50 mg/kg i.p.) was 38.82 °C; in “Rectal body temperature” (75 mg/kg i.p.) it was 38.55 °C; in “Rectal body temperature” (100 mg/kg i.p.), 38.97 °C; in the data set “Rectal body temperature” (200 mg/kg i.p.) it was 39.18 °C; in the data set “Rectal body temperature” (200 mg/kg i.p., listed as valproate) it was 39.2 °C. Besides, in the data set “Rectal body temperature” (100 mg/kg i.p.), the “alterations in body-temperature, in words” value is “No alterations”.
